Measured values published in ChEMBL document CHEMBL4130365, “An overview of benzo[b]thiophene-based medicinal chemistry” (Eur J Med Chem, 2017).
Converted amounts (≈) assume the structure as drawn.

Key:
[1] = system: Mycobacterium tuberculosis; assay: Antimycobacterial activity against Mycobacterium tuberculosis; assay type: functional
[2] = system: Mycobacterium tuberculosis; assay: Growth inhibition of Mycobacterium tuberculosis relative to control; assay type: functional
[3] = system: Candida; assay: Antifungal activity against Candida pannical at 1000 ug/ml after 48 hrs by filter paper disc method; assay type: functional; conditions: read-out: IZ
[4] = system: Aspergillus niger; assay: Antifungal activity against Aspergillus niger at 1000 ug/ml after 48 hrs by filter paper disc method; assay type: functional; conditions: read-out: IZ
[5] = system: Staphylococcus aureus; assay: Antibacterial activity against Staphylococcus aureus ATCC 25923 at 40 ug/ml after 48 hrs by filter paper disc method; assay type: functional; conditions: ATCC 25923, 48 h, read-out: IZ
[6] = system: Streptococcus pneumoniae; assay: Antibacterial activity against Streptococcus pneumoniae at 1000 ug/ml after 48 hrs by filter paper disc method; assay type: functional; conditions: read-out: IZ
[7] = system: Bacillus spizizenii; assay: Antibacterial activity against Bacillus subtilis ATCC 6633 at 1000 ug/ml after 48 hrs by filter paper disc method; assay type: functional; conditions: ATCC 6633, 48 h, read-out: IZ
[8] = system: Mycobacterium tuberculosis; assay: Antimycobacterial activity against Mycobacterium tuberculosis H37Rv ATCC 25618 after 5 days; assay type: functional; conditions: H37Rv ATCC 25618, 120 h
[9] = target: Tubulin; assay: Inhibition of tubulin polymerization (unknown origin); assay type: protein-complex assay, Homo sapiens
[10] = system: Rattus norvegicus; assay: Anti-inflammatory activity in rat assessed as inhibition of cotton pellet-induced granuloma at 100 mg/kg relative to control; assay type: functional
[11] = target: T1, Peroxisome proliferator-activated receptor gamma (Homo sapiens) (UniProt P37231); assay: Transactivation of GAL4 DBD-fused human PPARgamma LBD (174 to 475 residues) expressed in human HepG2 cells harboring pGL3-promoter-GAL4 at 28 uM after 24 hrs by luciferase reporter gene assay relative to control; assay type: cell-based
T1 sequence (whole entry): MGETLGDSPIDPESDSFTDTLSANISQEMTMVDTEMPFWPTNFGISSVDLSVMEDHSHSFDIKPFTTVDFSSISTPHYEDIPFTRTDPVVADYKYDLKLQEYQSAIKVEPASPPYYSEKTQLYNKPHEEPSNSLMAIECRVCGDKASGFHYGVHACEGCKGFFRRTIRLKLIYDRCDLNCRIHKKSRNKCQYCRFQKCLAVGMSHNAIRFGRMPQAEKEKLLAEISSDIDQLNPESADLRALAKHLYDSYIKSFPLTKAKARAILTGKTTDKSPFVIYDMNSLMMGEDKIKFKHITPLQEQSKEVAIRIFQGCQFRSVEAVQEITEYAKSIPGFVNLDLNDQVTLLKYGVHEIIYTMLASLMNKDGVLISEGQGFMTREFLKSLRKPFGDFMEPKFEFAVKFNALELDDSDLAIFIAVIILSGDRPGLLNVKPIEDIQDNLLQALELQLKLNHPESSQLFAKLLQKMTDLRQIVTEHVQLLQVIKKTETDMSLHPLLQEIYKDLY

[12] = system: Staphylococcus aureus; assay: Antibacterial activity against Staphylococcus aureus ATCC 25923 at 1000 ug/ml after 48 hrs by filter paper disc method; assay type: functional; conditions: ATCC 25923, 48 h, read-out: IZ
[13] = system: SF-268; assay: Growth inhibition of human SF268 cells; assay type: functional, cell-based
[14] = system: MCF7; assay: Growth inhibition of human MCF7 cells; assay type: functional, cell-based
[15] = system: NCI-H460; assay: Growth inhibition of human NCI-H460 cells; assay type: functional, cell-based
[16] = Antioxidant activity assessed as inhibition of ABTS radical formation relative to control; assay type: functional; design: concentration or dose not given beside the values; conditions: dose or concentration not given here
[17] = Antioxidant activity assessed as inhibition of superoxide anion radical formation after 5 mins in presence of PMS and NADH by nitroblue tetrazolium method relative to control; assay type: functional
[18] = system: SF-268; assay: Growth inhibition of human SF268 cells after 48 hrs by SRB assay; assay type: functional, cell-based; conditions: SF-268, 48 h
[19] = system: MCF7; assay: Growth inhibition of human MCF7 cells after 48 hrs by SRB assay; assay type: functional, cell-based; conditions: MCF7, 48 h
[20] = system: NCI-H460; assay: Growth inhibition of human NCI-H460 cells after 48 hrs by SRB assay; assay type: functional, cell-based; conditions: NCI-H460, 48 h

## Cc1ccccc1Nc1nnc(NC(=O)c2cc3cc(Oc4ccccc4)ccc3s2)s1
[1]
  MIC: > 6.25 µg/mL
[2]
  growth inhibition (GI): 60%

## O=c1c2ccccc2nc(-c2sc3ccccc3c2Cl)n1-c1ccc([N+](=O)[O-])cc1
[3]
  zone of inhibition at 1000 µg/mL: 17 mm
[4]
  zone of inhibition at 1000 µg/mL: 10 mm

## Cc1cccc(NNC(=O)Nc2sc3ccccc3c2Cl)c1
[5]
  zone of inhibition at 40 µg/mL: 15 to 16 mm
[6]
  zone of inhibition at 1000 µg/mL: 16 mm

## COc1cc(OC)c2ccc(=O)n(NC(=O)c3sc4cc(F)ccc4c3N)c2c1
[5]
  zone of inhibition at 40 µg/mL: 24 mm
[7]
  zone of inhibition at 1000 µg/mL: 23 mm
[4]
  zone of inhibition at 1000 µg/mL: 26 mm
[6]
  zone of inhibition at 1000 µg/mL: 20 mm

## COc1ccc(-c2nnc(SC3=CS(=O)(=O)c4ccccc43)o2)cc1
[8]
  MIC99: 7.2 µM (≈ 2.68 µg/mL)

## COc1ccc2c(C(O)c3ccc(OC)c(O)c3)c(-c3cc(OC)c(OC)c(OC)c3)sc2c1 (configuration not stated)
[9]
  IC50: 6100 nM

## O=c1c2c3c(sc2ncn1/N=C/c1ccccc1Cl)CCCC3
[10]
  inhibition in vivo at 100 mg/kg: 28.2%

## COc1ccccc1Nc1nnc(NC(=O)c2cc3cc(Oc4ccccc4)ccc3s2)s1
[1]
  MIC: > 6.25 µg/mL
[2]
  growth inhibition (GI): 60%

## O=C(Nn1c(-c2ccccc2Cl)nc2ccccc2c1=O)c1sc2ccccc2c1Cl
[1]
  MIC: 6.25 µg/mL (≈ 13.4 µM)

## COc1ccc2cc(/C=N/n3cnc4sc5c(c4c3=O)CCCC5)ccc2c1
[10]
  inhibition in vivo at 100 mg/kg: 28.3%

## O=C(c1ccsc1)c1cccs1
[11]
  Activity: 114%

## Cc1cc2ccc(O)cc2n(NC(=O)c2sc3cc(F)ccc3c2N)c1=O
[12]
  zone of inhibition at 1000 µg/mL: 23 mm
[7]
  zone of inhibition at 1000 µg/mL: 25 mm
[6]
  zone of inhibition at 1000 µg/mL: 22 mm

## CCOC(=O)c1c(/N=C/n2nc(N)cc2O)sc2c1CCCC2
[13]
  IC50: 50 nM
[14]
  IC50: 10 nM
[15]
  IC50: 20 nM

## COc1ccc(C2CC(c3ccc(NC(=O)c4sc5ccccc5c4Cl)cc3)=NO2)cc1 (configuration not stated)
[3]
  zone of inhibition at 1000 µg/mL: 16 mm

## N=C1c2c(sc3c2CCCC3)N=C(SCC(=O)c2ccccc2)C1C(=O)c1ccccc1 (configuration not stated)
[13]
  IC50: 10 nM
[14]
  IC50: 10 nM
[15]
  IC50: 20 nM

## Clc1c(-c2nnc(CNc3ccccc3)o2)sc2ccccc12
[7]
  zone of inhibition at 1000 µg/mL: 15 mm

## O=C(CSc1nnc(-c2sc3ccccc3c2Cl)[nH]1)c1ccc(F)cc1
[12]
  zone of inhibition at 1000 µg/mL: 16 mm
[7]
  zone of inhibition at 1000 µg/mL: 15 mm

## N#Cc1c(/N=C/n2nc(N)cc2O)sc2c1CCCC2
[13]
  IC50: 60 nM
[14]
  IC50: 20 nM
[15]
  IC50: 80 nM

## CCOC(=N)n1cnc2c(sc3cc(F)ccc32)c1=O
[5]
  zone of inhibition at 40 µg/mL: 25 mm
[7]
  zone of inhibition at 1000 µg/mL: 24 mm
[6]
  zone of inhibition at 1000 µg/mL: 25 mm

## COc1ccc(Nc2nnc(NC(=O)c3cc4cc(Oc5ccccc5)ccc4s3)s2)cc1
[1]
  MIC: > 6.25 µg/mL
[2]
  growth inhibition (GI): 90%

## CCOC(=O)C1=C(NCC2=C(O)C(=O)c3ccccc3C2=O)SC2CCCCC12 (configuration not stated)
[16]
  inhibition: 63.2%

## Cn1nnnc1SC1=CS(=O)(=O)c2ccccc21
[8]
  MIC99: 2.6 µM (≈ 0.729 µg/mL)

## COc1ccc(-c2sc3cc4c(cc3c2C(=O)c2cc(OC)c(OC)c(OC)c2)OCO4)cc1O
[9]
  IC50: 40000 nM

## O=S1(=O)C=C(Sc2nnc(-c3ccc(Cl)cc3)o2)c2ccccc21
[8]
  MIC99: 3.9 µM (≈ 1.47 µg/mL)

## Cc1ccc(-c2nnc(SC3=CS(=O)(=O)c4ccccc43)o2)cc1
[8]
  MIC99: 8.2 µM (≈ 2.92 µg/mL)

## O=c1c2ccccc2nc(-c2sc3ccccc3c2Cl)n1-c1ccc(F)cc1
[3]
  zone of inhibition at 1000 µg/mL: 14 mm
[4]
  zone of inhibition at 1000 µg/mL: 17 mm

## COc1ccc(NC(=O)Nc2sc3ccccc3c2Cl)cc1
[5]
  zone of inhibition at 40 µg/mL: 15 to 16 mm

## C[S+]([O-])CC(=O)c1cc2ccccc2s1 (configuration not stated)
[11]
  Activity: 121%

## O=C(NN1C(=O)/C(=C/c2cccc(Br)c2)N=C1c1ccccc1)c1sc2ccc(Cl)cc2c1Cl
[1]
  MIC: > 6.25 µg/mL
[2]
  growth inhibition (GI): 67%

## CCOC(=O)c1c(NC(=O)c2c(NC(=O)CC#N)sc3c2CCC3)sc2c1CCCC2
[17]
  inhibition: 61.4%

## CCOC(=O)c1c(NC2=CC(=O)C(=O)c3ccccc32)sc2c1CCCC2
[16]
  inhibition: 65.6%

## Cc1ccc(-n2c(S)nnc2NC(=O)c2sc3ccc(Cl)cc3c2Cl)cc1
[1]
  MIC: > 6.25 µg/mL
[2]
  growth inhibition (GI): 64%

## CC(=O)/C(=C\c1ccccc1O)C(=O)Nc1sc2c(c1C#N)CCCC2
[18]
  IC50: 60 nM
[19]
  IC50: 20 nM
[20]
  IC50: 80 nM

## CCOC(=O)c1c(NC(=O)/C(C#N)=C(/S)Nc2ccccc2)sc2c1CCCC2
[17]
  inhibition: 57.1%

## CC(C)Cc1ccc(C(C)C(=O)O)cc1 (configuration not stated) [IBUPROFEN]
[10]
  inhibition in vivo at 100 mg/kg: 31.3%

## COc1ccc(-c2sc3cc(OC)ccc3c2C(=O)c2cc(OC)c(OC)c(OC)c2)cc1
[9]
  IC50: 40000 nM

## CCOC(=O)c1c(-n2c(N)c(C#N)c(C)cc2=O)sc2c1CCCC2
[18]
  IC50: 80 nM
[19]
  IC50: 10 nM
[20]
  IC50: 10 nM

## N#Cc1c(/N=C/NNc2ccccc2)sc2c1CCCC2
[13]
  IC50: 30 nM
[14]
  IC50: 30 nM
[15]
  IC50: 30 nM

## COC1=C(Nc2sc3c(c2C(N)=O)CCCC3)C(=O)c2ccccc2C1=O
[16]
  inhibition: 96%

## N#Cc1c(/N=C/C2C(N)=NN=C2O)sc2c1CCCC2 (configuration not stated)
[13]
  IC50: 20 nM
[14]
  IC50: 20 nM
[15]
  IC50: 10 nM

## CCOC(=O)C1=C(NNC2=C(O)C(=O)c3ccccc3C2=O)SC2CCCCC12 (configuration not stated)
[16]
  inhibition: 98.9%

## CCOC(=O)CSC(SCC(=O)OCC)=C(C#N)C(=O)Nc1sc2c(c1C(=O)OCC)CCCC2
[17]
  inhibition: 58.9%

## CCOC(=O)c1c(NC(=O)/C(=N/Nc2ccc(Cl)cc2)C(C)=O)sc2c1CCCC2
[18]
  IC50: 80 nM
[19]
  IC50: 10 nM
[20]
  IC50: 10 nM

## O=S1(=O)C=C(Sc2nnc(-c3ccccc3)o2)c2ccccc21
[8]
  MIC99: 3.1 µM (≈ 1.06 µg/mL)

## CCOC(=O)c1c(NC2=C(OC)C(=O)c3ccccc3C2=O)sc2c1CCCC2
[16]
  inhibition: 89.9%

## O=S1(=O)C=C(Sc2nc3ccccc3o2)c2ccccc21
[8]
  MIC99: 5.7 µM (≈ 1.8 µg/mL)

## O=C(Nn1c(-c2ccccc2[N+](=O)[O-])nc2ccccc2c1=O)c1sc2ccccc2c1Cl
[1]
  MIC: 12.5 µg/mL (≈ 26.2 µM)

## O=C(Nc1ccc(C2=NN(c3ccc(F)cc3)C(c3ccccc3)C2)cc1)c1sc2ccccc2c1Cl (configuration not stated)
[7]
  zone of inhibition at 1000 µg/mL: 16 mm

## COc1ccc(/C=C/C(=O)c2ccc(NC(=O)c3sc4ccccc4c3Cl)cc2)cc1
[7]
  zone of inhibition at 1000 µg/mL: 16 mm

## O=C(NN1C(=O)/C(=C/c2ccccc2[N+](=O)[O-])N=C1c1ccccc1)c1sc2ccc(Cl)cc2c1Cl
[1]
  MIC: > 6.25 µg/mL
[2]
  growth inhibition (GI): 71%

## N#Cc1c(/N=C/c2ccccc2)sc2c1CCCC2
[13]
  IC50: 20 nM
[14]
  IC50: 20 nM
[15]
  IC50: 10 nM

## O=C(CC(=O)C(F)(F)F)c1cccs1
[11]
  Activity: 102%

## O=C(NNc1ccc(F)cc1)Nc1sc2ccccc2c1Cl
[5]
  zone of inhibition at 40 µg/mL: 15 to 16 mm

## COc1ccc(C2CC(c3ccc(NC(=O)c4sc5ccccc5c4Cl)cc3)=NN2)cc1 (configuration not stated)
[12]
  zone of inhibition at 1000 µg/mL: 14 mm

## NNC1=Nc2sc3c(c2C(=O)C1C(=O)c1ccccc1)CCCC3 (configuration not stated)
[13]
  IC50: 10 nM
[14]
  IC50: 30 nM
[15]
  IC50: 20 nM
